Data on 2 molecules can be found in patent US4870160A, “Polypeptides with laminin activity” (Regents of the University of Minnesota, priority 1987, dated 1989).

Peptide text beside a SMILES is read from it.

The test system of experiment [1] is murine melanoma cells, K-1735-M4. Kind of experiment: Cell adhesion assay for M4 cell line (Example 6A). Format: cell-based. As to conditions: FIG. 10. As to the method:
(§1) Adhesion was measured using 96 well microtiter plates adsorbed with three different amounts (0.1; 1.0; and 10.0 μg/per well) of peptides 9, 11-18, BSA and laminin. Cultures of cells which were 60-80% confluent were metabolically labeled for 24 hours with the addition of 3 mCi/ml of ^3 H-amino acid mixture. On the day of the assay, the cells were harvested by trypsinization, the trypsin was inhibited by the addition of serum, and the cells were washed free of this mixture and resuspended in DMEM buffered with HEPES at pH 7.2. The adhesion medium also contained 2 mg/ml BSA. The cells were adjusted to a concentration of 3-4×10^4 /ml and 100 μls of this cell suspension was added to the wells. The assay mixture was then incubated at 37° C for 120 minutes. At the end of the incubation, the wells were washed with warm PBS containing 10 mM Ca^++, and the adherent population was solubilized with 0.5N NaOH containing 1% sodium dodecyl sulfate. The solubilized cells were then quantitated using a liquid scintillation counter. Each determination was done in triplicate.
Highly metastatic murine melanoma cells, K-1735-M4 were originally provided by Dr. I. J. Fidler of Anderson Hospital, University of Texas Health Sciences Center, Houston, Tex. When the cells were received, a large number of early passage cells were propagated and frozen in liquid nitrogen. […]

A short description of experiment [2]: Heparin binding assay on nitrocellulose sheets (Example 1). The note with it: peptide on nitrocellulose, 1 mg/ml to 1 μg/ml, 2 hours, FIG. 4. How it is done: The assay for heparin binding utilizes nitrocellulose sheets as subtrata to bind peptides or proteins to be tested for heparin binding activity. Peptides 9 and 11-18 were solubilized in 50 mM NH3 HCO3 to form solutions of 1 mg/ml. Each solution was serially diluted 1:1 in the same buffer producing concentrations from 1 mg/ml to 1 μg/ml. Nitrocellulose sheets which had been presoaked in 50 mM NH3 HCO3 were placed in a 96 well dot blot apparatus (Bethesda Research Laboratories, Bethesda, MD, and 100 μl of various concentrations of each peptide were aspirated through the wells. Each well was then washed three times with binding buffer (10 mM Tris-HCl, pH 8.0, 0.15 M NaCl), and the filters were removed and allowed to air dry overnight. The filters were then equilibriated for 5 minutes at room temperature in binding buffer which contained 10 mM CaCl2. ^3 H-heparin was then diluted to a concentration of 50,000 cpm/ml in binding buffer (with Ca^++), and nitrocellulose sheets were incubated in the presence of this mixture for 2 hours. The filters were then washed four times with binding buffer, and air dried. The individual spots of samples were cut out of the nitrocellulose, immersed in scintillation fluid and bound heparin was quantitated with a Beckman LS-3801 liquid scintillation counter. […]

Experiment [3] deals with Bovine aortic endothelial cells. Kind of experiment: Aortic endothelial cell adhesion assay (Example 5). As to conditions: 0.1; 1.0; and 10.0 μg/per well adsorbed, 120 minutes at 37° C, FIG. 9. The format is cell-based. How it is done: Bovine aortic endothelial cells were isolated according to the following protocol. Aortas were obtained from a local slaughterhouse, washed in cold phosphate buffered saline (PBS) (136 mM NaCl, 2.6 mM KCl, 15.2 mM Na2HP04, pH 7.2) and processed within 2 hours. Crude collagenase (CLS III, 125-145 units per mg dry weight, Cooper Biomedical) was used at 2 mg/ml in Dulbecco's modified Eagle's medium (DMEM) (GIBCO). The vessel was clamped at the distal end, filled with the collagenase-PBS solution and digestion was carried out for 10 minutes. The lumenal contents were harvested, followed by the addition of fresh collagenase for two additional 10-minute periods. The enzyme-cell suspensions were added to an equal volume of DMEM containing 10% fetal bovine serum (FBS) to inhibit the enzyme and spun in a centrifuge at 400×g for 10 minutes. The resulting cell pellet was resuspended in DMEM containing 10% FBS, 100 units/ml of penicillin G, 100 μg/ml of streptomycin and 100 μg/ml of crude fibroblast growth factor. Cells are cultured in 75 cm^2 flasks in a humidified 5% CO2 atmosphere at 37° C. Cultures were fed twice a week with the same medium and cells were used in assays when approximately 75% confluent. Cells were identified as endothelial in nature by characteristic cobblestone morphology, contact inhibition of growth upon reaching confluency, and positive immunofluorescent staining for factor VIII:RAg (Miles Laboratories) [S. Schwartz, In Vitro, 14, 966 (1978)]. Only endothelial cells, megakaryocytes and platelets are known to contain the factor VIII:RAg. This method routinely gives a high yield of endothelial cells with little contamination (less than 5%) by smooth muscle cells, pericytes or fibroblasts as judged by phase contrast microscopy as well as by immunostaining.
as §1, with “At the end of the incubation, the wells were washed with warm PBS containing 10 mM Ca^++, and the adherent population was solubilized with 0.5N NaOH containing 1% sodium dodecyl sulfate.” left out, “Each determination was done in triplicate.” left out

The next experiment relates to Rat C6 glioma cell line. Nature of the experiment: Cell adhesion assay for C6 cell line (Example 6C). Format: cell-based. The note with it: FIG. 12. As to the method: as §1
Rat C6 glioma cell line was purchased from the American Type Culture Collection (identification number CCL 107). Culturing techniques were as described in part A. Labelling and harvesting techniques were as described in Example 5. Cell adhesion assay was performed as described in Example 5.

A short description of experiment [4]: Heparin binding to peptides coated on 96-well plastic plates (Example 2). The note with it: 1 mg/ml to 1 μg/ml, two hours at 37° C., FIG. 5. How it is done: In order to test the ability of the synthesized peptides (9 and 11-18) to bind to 96-well plastic plates (in which experiments with cultured cell lines can be performed), we did an experiment similar to that described above in Example 1. Stock solutions of peptides 9 and 11-18, laminin and BSA at a maximum concentration of 1 mg/ml were prepared and serially diluted in PBS+NaN3 producing final concentration from 1 mg/ml to 1 μg/ml. Fifty μl from each concentration was coated on the 96-well plates and left to dry overnight at 28° C. Then, wells were treated for two hours with […] of 2 mg/ml BSA in 6 mM phosphate, 100 mM NaCl, 68 μM CaCl2, pH 6.8 (wash buffer) in order to minimize non-specific binding. Next 50 μls of ^3 H-heparin (10 μg/ml) was added (50,000 cpm/well) for two hours at 37° C. The wells were then washed three times with wash buffer containing 0.05% Triton X-100 and finally they were incubated for thirty minutes at 60 C with 200 μl of 0.5 N NaOH and 1% SDS. The amount of ^3 H-heparin bound at each peptide concentration was quantitated as described above in Example 1.

For `CSCC[C@H](NC(=O)CNC(=O)[C@H](CCCCN)NC(=O)[C@H](CCC(=O)O)NC(=O)[C@H](Cc1ccccc1)NC(=O)[C@H](CS)NC(=O)[C@@H](NC(=O)[C@@H]1CCCN1C(=O)[C@H](CCCNC(=N)N)NC(=O)[C@@H]1CCCN1C(=O)[C@H](CC(C)C)NC(=O)[C@@H](NC(=O)[C@@H](NC(=O)[C@H](Cc1ccc(O)cc1)NC(=O)[C@@H](N)CCCNC(=N)N)C(C)C)C(C)C)C(C)C)C(=O)N[C@@H](CC(N)=O)C(=O)N[C@@H](Cc1ccc(O)cc1)C(=O)N[C@H](C(=O)N[C@H](C(=O)N[C@@H](CCCNC(=N)N)C(=O)O)C(C)C)[C@@H](C)O` [Peptide F9] (H-RYVVLPRPVCFEKGMNYTVR-OH), the cell adhesion result (in experiment [1]; with Rat C6 glioma cell line) was “potent promoters of cell adhesion” in each case. In addition, the “binding of ^3 H-heparin” value is “strongly bound ^3 H-heparin” in experiment [2] and “bind heparin very well” in experiment [4]. Further, the endothelial cell adhesion result in experiment [3] was “potent promoters of endothelial cell adhesion”.
In the case of `CC[C@H](C)[C@H](NC(=O)[C@H](CCCCN)NC(=O)[C@H](CC(C)C)NC(=O)[C@H](C)NC(=O)[C@H](CCCCN)NC(=O)[C@H](C)NC(=O)[C@H](CCCCN)NC(=O)[C@H](CCC(=O)O)NC(=O)[C@H](CC(C)C)NC(=O)[C@H](Cc1ccccc1)NC(=O)[C@H](CCCCN)NC(=O)[C@H](Cc1c[nH]cn1)NC(=O)[C@@H](NC(=O)[C@H](CCCNC(=N)N)NC(=O)[C@H](CC(N)=O)NC(=O)[C@@H](NC(=O)[C@H](CC(C)C)NC(=O)[C@@H](N)CCC(=O)O)[C@@H](C)O)[C@@H](C)O)C(=O)O` [Peptide F13, ELTNRTHKFLEKAKALKI] (H-ELTNRTHKFLEKAKALKI-OH), the cell adhesion result (in experiment [1]; in the experiment on Rat C6 glioma cell line) was “potent promoters of cell adhesion” each time. In addition, the “binding of ^3 H-heparin” value in experiment [2] was “strongly bound ^3 H-heparin”; in experiment [4], “binds heparin but less extensively”. The endothelial cell adhesion entry in experiment [3] is listed as “potent promoters of endothelial cell adhesion”.
